Measured values published in ChEMBL document CHEMBL4609983, “Pan-specific and partially selective dye-labeled peptidic inhibitors of the polycomb paralog proteins” (Bioorg Med Chem, 2020).
The source made the active and inactive calls. The rule behind the calls is not given here. Non-standard residues stand in square brackets, D forms with d. Residues, ends and D or L forms follow the SMILES beside them. *: point of attachment. Biotin = O=C1N[C@H]2[C@H](CS[C@H]2CCCCC(=O)*)N1; Lys(Me3) = C[N+](C)(C)CCCC[C@H](N)C(=O)O; Benzoyl(4-Br) = O=C(c1ccc(Br)cc1)*

How the values were obtained:
[1] = biological target: T1, Chromobox protein homolog 6 (Homo sapiens) (UniProt O95503); assay: Binding affinity to recombinant human CBX6 by microarray based assay
T1 sequence (whole entry): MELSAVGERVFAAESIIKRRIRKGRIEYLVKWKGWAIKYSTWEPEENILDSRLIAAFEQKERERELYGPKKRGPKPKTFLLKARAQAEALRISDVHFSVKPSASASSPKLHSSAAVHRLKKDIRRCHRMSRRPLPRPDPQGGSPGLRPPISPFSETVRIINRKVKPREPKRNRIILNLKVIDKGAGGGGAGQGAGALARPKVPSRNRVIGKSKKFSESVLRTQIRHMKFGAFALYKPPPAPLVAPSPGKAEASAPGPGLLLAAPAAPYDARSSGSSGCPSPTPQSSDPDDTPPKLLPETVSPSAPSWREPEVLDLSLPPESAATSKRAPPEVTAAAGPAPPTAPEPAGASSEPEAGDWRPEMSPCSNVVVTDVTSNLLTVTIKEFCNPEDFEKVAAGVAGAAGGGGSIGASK

[2] = biological target: Mortality factor 4-like protein 1 (Homo sapiens) (UniProt Q9UBU8); assay: Binding affinity to recombinant human MORF4L1 by microarray based assay
Chain of Mortality factor 4-like protein 1 (Homo sapiens) (Q9UBU8 whole entry): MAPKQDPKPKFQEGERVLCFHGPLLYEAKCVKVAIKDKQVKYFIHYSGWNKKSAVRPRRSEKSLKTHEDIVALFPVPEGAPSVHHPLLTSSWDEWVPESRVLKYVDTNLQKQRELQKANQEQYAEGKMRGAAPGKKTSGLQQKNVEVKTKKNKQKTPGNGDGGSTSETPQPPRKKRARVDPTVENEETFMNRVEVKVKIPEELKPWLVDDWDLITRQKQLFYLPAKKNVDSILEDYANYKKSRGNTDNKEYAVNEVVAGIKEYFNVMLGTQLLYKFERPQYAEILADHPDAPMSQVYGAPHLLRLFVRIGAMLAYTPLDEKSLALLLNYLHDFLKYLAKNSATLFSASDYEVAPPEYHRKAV

[3] = biological target: T2, Chromobox protein homolog 8 (Homo sapiens) (UniProt Q9HC52); assay: Binding affinity to recombinant human CBX8 by microarray based assay
T2 sequence (whole entry): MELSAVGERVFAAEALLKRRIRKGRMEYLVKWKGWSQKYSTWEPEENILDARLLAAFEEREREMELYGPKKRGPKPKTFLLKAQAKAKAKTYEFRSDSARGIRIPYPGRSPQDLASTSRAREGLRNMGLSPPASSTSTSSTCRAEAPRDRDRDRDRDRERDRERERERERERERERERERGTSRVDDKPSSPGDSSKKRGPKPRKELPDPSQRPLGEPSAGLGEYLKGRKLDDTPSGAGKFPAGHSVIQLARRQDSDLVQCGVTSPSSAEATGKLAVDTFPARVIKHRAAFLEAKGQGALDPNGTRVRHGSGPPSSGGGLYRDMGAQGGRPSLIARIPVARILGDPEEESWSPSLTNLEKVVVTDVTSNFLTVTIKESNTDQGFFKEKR

[4] = biological target: T3, Chromodomain Y-like protein 2 (Homo sapiens) (UniProt Q8N8U2); assay: Binding affinity to recombinant human CDYL2 by microarray based assay
T3 sequence (whole entry): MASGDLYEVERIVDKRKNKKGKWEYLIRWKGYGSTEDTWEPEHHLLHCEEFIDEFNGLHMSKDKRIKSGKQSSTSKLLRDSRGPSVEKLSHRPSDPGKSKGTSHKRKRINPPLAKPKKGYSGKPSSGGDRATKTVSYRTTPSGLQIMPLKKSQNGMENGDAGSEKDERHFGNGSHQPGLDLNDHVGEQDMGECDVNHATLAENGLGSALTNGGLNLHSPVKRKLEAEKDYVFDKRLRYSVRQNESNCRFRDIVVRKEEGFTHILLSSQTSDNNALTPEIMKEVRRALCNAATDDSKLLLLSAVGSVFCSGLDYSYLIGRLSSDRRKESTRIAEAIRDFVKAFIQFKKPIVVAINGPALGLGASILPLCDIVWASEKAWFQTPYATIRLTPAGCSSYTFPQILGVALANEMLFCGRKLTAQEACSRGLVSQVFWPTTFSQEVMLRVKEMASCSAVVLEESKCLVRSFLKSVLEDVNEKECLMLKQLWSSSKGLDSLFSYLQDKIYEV

[5] = biological target: T4, Chromodomain Y-like protein (Homo sapiens) (UniProt Q9Y232); assay: Binding affinity to recombinant human CDYL1B by microarray based assay
T4 sequence (whole entry): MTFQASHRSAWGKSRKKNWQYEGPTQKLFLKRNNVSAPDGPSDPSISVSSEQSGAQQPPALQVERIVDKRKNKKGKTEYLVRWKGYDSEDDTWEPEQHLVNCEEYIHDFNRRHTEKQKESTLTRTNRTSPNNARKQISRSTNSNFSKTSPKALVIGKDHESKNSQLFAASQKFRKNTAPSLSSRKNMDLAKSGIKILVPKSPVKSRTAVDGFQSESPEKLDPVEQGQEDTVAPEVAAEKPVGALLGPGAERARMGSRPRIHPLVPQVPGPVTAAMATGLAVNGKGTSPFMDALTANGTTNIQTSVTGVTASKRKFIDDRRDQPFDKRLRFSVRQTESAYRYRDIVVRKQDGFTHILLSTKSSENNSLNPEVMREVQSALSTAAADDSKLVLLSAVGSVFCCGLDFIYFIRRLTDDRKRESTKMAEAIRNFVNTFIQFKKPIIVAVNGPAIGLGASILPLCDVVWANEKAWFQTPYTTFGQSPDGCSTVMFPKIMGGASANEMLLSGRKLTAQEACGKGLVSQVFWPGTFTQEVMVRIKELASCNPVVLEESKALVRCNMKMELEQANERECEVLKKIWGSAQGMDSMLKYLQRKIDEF

[6] = biological target: T5, Testis-specific chromodomain protein Y 1 (Homo sapiens) (UniProt Q9Y6F8); assay: Binding affinity to recombinant human CDY1 by microarray based assay
T5 sequence (whole entry): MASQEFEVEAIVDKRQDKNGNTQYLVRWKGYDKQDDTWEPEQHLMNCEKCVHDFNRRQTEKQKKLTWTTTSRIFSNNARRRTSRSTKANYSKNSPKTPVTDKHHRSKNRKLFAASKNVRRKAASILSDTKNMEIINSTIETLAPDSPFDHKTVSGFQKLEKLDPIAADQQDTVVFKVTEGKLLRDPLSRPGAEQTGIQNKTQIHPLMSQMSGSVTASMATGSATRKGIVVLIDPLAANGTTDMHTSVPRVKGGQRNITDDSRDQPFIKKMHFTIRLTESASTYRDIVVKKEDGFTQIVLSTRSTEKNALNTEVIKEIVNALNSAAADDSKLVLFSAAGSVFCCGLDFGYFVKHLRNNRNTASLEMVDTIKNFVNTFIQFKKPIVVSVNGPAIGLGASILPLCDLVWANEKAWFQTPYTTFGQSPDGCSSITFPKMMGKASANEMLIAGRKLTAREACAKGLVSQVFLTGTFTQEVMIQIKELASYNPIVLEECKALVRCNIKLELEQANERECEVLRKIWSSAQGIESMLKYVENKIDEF

- Activity [1]: Active
- Activity [3]: Active
- Activity [4]: Active
- Activity [5]: Active
- Activity [6]: Active
SMILES: CC(C)C[C@H](NC(=O)[C@H](CO)NC(=O)[C@H](CCCC[N+](C)(C)C)NC(=O)[C@H](Cc1ccc(O)cc1)NC(=O)[C@H](C)NC(=O)[C@H](Cc1ccccc1)NC(=O)c1ccc(Br)cc1)C(=O)N[C@@H](CCCCNC(=O)CCCC[C@@H]1SC[C@@H]2NC(=O)N[C@@H]21)C(N)=O ({Benzoyl(4-Br)}-FAY[Lys(Me3)]SLK(Biotin)-NH2)
- Activity [2]: Active
